# Experimental data reported in patent US20230293487A1, “ANTI-INFLAMMATORY COMPOSITION COMPRISING BENZOFURAN-BASED N-ACYLHYDRAZONE DERIVATIVES” (KOREA RESEARCH INSTITUTE OF BIOSCIENCE AND BIOTECHNOLOGY, priority 2020, published 2023).
# Columns and labels:
# [1] = tested on: NF-κB; assay: NF-κB luciferase assay, luminometer (Test Example 3); format: cell-based, human; settings: HEK293, 1 uM compound, 10 ng/ml TNF-α; FIG. 3
# Protocol: HEK293 cell line, a human-derived embryonic kidney cell line, was cultured, transfected with NF-κB luciferase vector, treated with 1 uM of the compound, and then treated with 10 ng/ml of TNF-α to induce the NF-κB pathway. Luciferase assay method was performed to quantitatively measure the effect on NF-κB gene expression using a luminometer.
# [2] = tested on: NF-κB; assay: NF-κB luciferase reporter assay, TNF-α induced (Test Example 1); format: cell-based; settings: Homo sapiens; HEK293, NF-κB luciferase vector, 10 ng/ml TNF-α, 1 uM compound; FIG. 1; read-out: NF-κB activity inhibited (reporter activity)
# Protocol: The cultured human-derived HEK293 cell line was transfected with the NF-κB luciferase (reporter) vector, and treated with 10 ng/ml of TNF-α to induce activation of the NF-κB signaling pathway. In addition, during the above process, 1 uM of each of 9 kinds of compounds represented by [Chemical Formula 1] was treated to measure the inhibitory effect of the NF-κB-mediated inflammatory response regulatory pathway. Specifically, the relative expression level of NF-κB was confirmed.
# [3] = tested on: p100 protein; assay: Western blotting of NF-κB non-canonical pathway, induced with LIGHT (Test Example 5); format: cell-based; settings: LIGHT induction, own compound used = Example 4 (1042), b448, FIG. 8
# Excerpt: (§1) The NF-κB signaling pathway is largely divided into canonical and non-canonical pathways. In the canonical pathway, when an inflammatory response is induced by treatment with TNF-α, the amount of P-p65 protein, which is a phosphorylated product of p65 protein, increases and migrates into the nucleus, inducing an inflammatory response. In the non-canonical pathway, when an inflammatory response is induced with a LIGHT compound that activates the non-canonical NF-κB pathway, the p100 protein is converted into p52 protein through processing and migrates into the nucleus to induce an inflammatory response. […] Specifically, in order to confirm whether the activation of NF-κB signaling pathways (canonical and non-canonical pathways) is regulated, the regulation of phosphorylated p65 and p100 proteins, which are major signal regulating molecules, was confirmed using Western blotting. In the present experiment, the compound of Example 4 (1042) was used as the compound according to the present disclosure.
# [4] = tested on: P-p65 protein; assay: Western blotting of NF-κB canonical pathway, induced with TNF-α (Test Example 5); format: cell-based; settings: TNFα induction, own compound used = Example 4 (1042), b448, FIG. 8
# Excerpt: as §1
# [5] = tested on: mice (LPS-induced sepsis); assay: LPS-induced sepsis (cytokine storm-like) model (Test Example 7); format: in vivo; settings: LPS intraperitoneal, drug intravenous; FIG. 11B
# Protocol: Since there were no disease model animals leading to death from a cytokine storm caused by coronaviruses, particularly Sars-Cov2, the present inventors used an acute sepsis model in which an acute inflammatory response is induced to cause the cytokine storm problem and confirmed inhibition of the cytokine storm, the possibility of treating severe acute respiratory syndrome coronavirus 2 infection disease and the possibility of treating sepsis.
# An experiment was performed by treating LPS on an animal model (cytokine storm-like model) of sepsis (death). Mice were intraperitoneally administered with LPS for induction of sepsis and injected intravenously with the drug (Example 4), and then blood was collected at 3, 6, and 12 hours. The survival rate was confirmed for 48 hours to observe mortality due to sepsis.
# [6] = tested on: mice (oxazolone-induced skin inflammation); assay: Oxazolone-induced skin inflammation in mouse ears (Test Example 4): naked eye, H&E staining, immune cell count; format: in vivo; settings: compound 20 μl at 500 nM, 5 applications; for number of inflammatory immune cells in skin: counted from H&E pictures, FIG. 6; for skin condition of ears confirmed with naked eye / thickness of the entire skin and epithelium (H&E staining): oxazolone on mouse ears; for skin condition of ears confirmed with naked eye: FIG. 4; for thickness of the entire skin and epithelium (H&E staining): FIG. 5
# Protocol: 3% Oxazolone (150 μl) was applied to the abdominal skin of 6-week-old mice to induce an immune response, and 0.5% diluted oxazolone (20 μl) was applied to the ears of mice a total of 5 times at intervals of one day to induce an inflammatory response. After 30 minutes of oxazolone application, Example 4 (CAP-1042) or Example 12 (CAP-1047) was applied a total of 5 times in an amount of 20 μl each at a concentration of 500 nM each.
# The number of mice in each experimental group was maintained at 10 or more, and the experiment was repeated twice in total.
# Specifically, after H&E staining (FIG. 5), photographs of at least 10 different parts of each sample were taken evenly under a microscope. Then, the number of inflammatory immune cells stained in dark red was directly counted from the pictures taken, and the average value was calculated.
expression amount of the NF-κB gene (luciferase) [1],Compound,inhibition at 1 µM [2] [%],also measured
significantly decreased,"CCOCCn1c(Cl)c(/C=N/NC(=O)c2cc3cc(C)ccc3o2)c2cc(F)ccc21 [Example 10, (E)-N′-[(2-chloro-1-(2-ethoxyethyl)-5-fluoro-1H-indol-3-yl]methylene}-5-methylbenzofuran-2-carbohydrazide]",≥ 50,
,"CCOC(=O)Cn1c(C)c(/C=N/NC(=O)c2cc3cc(C)ccc3o2)c2ccccc21 [Example 21, ethyl (E)-2-(2-methyl-3-((2-(5-methylbenzofuran-2-carbonyl)hydrazinylidene)methyl)-1H-indol-1-yl)acetate]",,melting point: 186 °C
,NC(=O)Nc1sc(-c2ccc(F)cc2)cc1C(N)=O [TPCA1],,inhibition of non-canonical NF-κB pathway (p100 to p52 processing) [3]: not on the non-canonical pathway; inhibition of canonical NF-κB pathway (P-p65) [4]: acts on the canonical pathway
significantly decreased,"CCOCCn1c(Cl)c(/C=N/NC(=O)c2cc3cc(C)ccc3o2)c2cc(Cl)ccc21 [Example 11, (E)-N′-[(2,5-dichloro-1-(2-ethoxyethyl)-1H-indol-3-yl]methylene}-5-methylbenzofuran-2-carbohydrazide]",≥ 50,
significantly decreased,"CCOCCn1c(Cl)c(/C=N/NC(=O)c2cc3cc(C)ccc3o2)c2cc(OC(F)(F)F)ccc21 [Example 12, (E)-N′-[(2-chloro-1-(2-ethoxyethyl)-5-(trifluoromethoxy)-1H-indol-3-yl]methylene}-5-methylbenzofuran-2-carbohydrazide]",≥ 50,skin condition of ears confirmed with naked eye [6]: skin conditions very similar to those of normal animals treated with ethanol; thickness of the entire skin and epithelium (H&E staining) [6]: reduced to the extent very similar to that of the normal skin treated with ethanol
,"COC(=O)Cn1c(Cl)c(/C=N/NC(=O)c2cc3cc(C)ccc3o2)c2ccccc21 [Example 23, methyl (E)-2-(2-chloro-3-((2-(5-methylbenzofuran-2-carbonyl)hydrazinylidene)methyl)-1H-indol-1-yl)acetate]",≥ 50,melting point: 212 °C
,CCOC(=O)Cn1c(C)c(/C=N/NC(=O)c2cc3cc(Cl)ccc3o2)c2ccccc21 [Example 22],,melting point: 214 °C
,"Cc1ccc2oc(C(=O)N/N=C/c3c(Cl)[nH]c4ccccc34)cc2c1 [Example 1, (E)-N′-[(2-chloro-1H-indol-3-yl)methylene]-5-methylbenzofuran-2-carbohydrazide]",≥ 50,
significantly decreased,"CCOCCn1c(Cl)c(/C=N/NC(=O)c2cc3cc(C)ccc3o2)c2cc(C)ccc21 [Example 13, (E)-N′-[(2-chloro-1-(2-ethoxyethyl)-5-methyl-1H-indol-3-yl]methylene}-5-methylbenzofuran-2-carbohydrazide]",≥ 50,
,"CCOCCn1c(Cl)c(/C=N/NC(=O)c2cc3cc(C)ccc3o2)c2ccc(OC)cc21 [Example 9, (E)-N′-[(2-chloro-1-(2-ethoxyethyl)-6-methoxy-1H-indol-3-yl]methylene}-5-methylbenzofuran-2-carbohydrazide]",≥ 50,
,(E)-N′-[(2-chloro-1-(2-methoxyethyl)-1H-indol-3-yl]methylene}-5-methylbenzofuran-2-carbohydrazide [Example 7],,number of inflammatory immune cells in skin [6]: reduced the number of immune cells induced by the inflammatory reaction to the extent very similar to that of the normal case treated with ethanol
,"CCOCCn1c(Cl)c(/C=N/NC(=O)c2cc3cc(C)ccc3o2)c2cc(OC)ccc21 [Example 8, (E)-N′-[(2-chloro-1-(2-ethoxyethyl)-5-methoxy-1H-indol-3-yl]methylene}-5-methylbenzofuran-2-carbohydrazide]",≥ 50,

Compound,expression amount of the NF-κB gene (luciferase) [1],inhibition at 1 µM [2] [%],also measured
"CCOCCn1c(Cl)c(/C=N/NC(=O)c2cc3cc(C)ccc3o2)c2ccccc21 [Example 4, (E)-N′-[(2-chloro-1-(2-ethoxyethyl)-1H-indol-3-yl]methylene}-5-methylbenzofuran-2-carbohydrazide]",significantly decreased,≥ 50,mortality due to sepsis (survival rate after 48 hours) [5]: significantly reduced mortality due to sepsis; number of inflammatory immune cells in skin [6]: reduced the number of immune cells induced by the inflammatory reaction to the extent very similar to that of the normal case treated with ethanol; skin condition of ears confirmed with naked eye [6]: skin conditions very similar to those of normal animals treated with ethanol; thickness of the entire skin and epithelium (H&E staining) [6]: reduced to the extent very similar to that of the normal skin treated with ethanol
